Measured values taken from ChEMBL document CHEMBL1201862, “PubChem BioAssay data set” (2004).
Activity calls are given as the source filed them.

Legend:
[1] = target: T1, Neuropeptides B/W receptor type 1 (Homo sapiens, UniProt P48145); assay: human NPBW1 receptor blockade, IC50 – cell-based, fluorescence, dose response, set 6, late-stage follow-up (AID 588583); assay type: functional
T1 sequence (P48145 whole entry): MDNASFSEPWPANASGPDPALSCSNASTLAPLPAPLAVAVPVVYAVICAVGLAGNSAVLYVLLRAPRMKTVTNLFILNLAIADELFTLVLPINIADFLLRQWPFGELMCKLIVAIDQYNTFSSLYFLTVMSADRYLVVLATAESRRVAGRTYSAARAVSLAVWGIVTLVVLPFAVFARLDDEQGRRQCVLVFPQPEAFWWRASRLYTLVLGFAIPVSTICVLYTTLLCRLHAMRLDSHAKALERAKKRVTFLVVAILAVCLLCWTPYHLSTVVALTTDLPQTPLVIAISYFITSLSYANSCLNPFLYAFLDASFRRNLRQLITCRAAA

[2] = target: T2, Melanin-concentrating hormone receptor 1 (Homo sapiens, UniProt Q99705); assay: Late-stage fluorescence-based counterscreen for antagonists of the G-protein coupled receptor 7 (GPR7): cell-based dose response assay to identify antagonists of the melanin-concentrating hormone receptor 1 (MCHR1) Set 6.; assay type: functional
[3] = target: T3, High affinity choline transporter 1 (Homo sapiens, UniProt Q9GZV3); assay: human choline transporter blockers, potency – cell-based, 5-point CRC, membrane potential dye, dose response (AID 504840); assay type: functional
T3 sequence (Q9GZV3 whole entry): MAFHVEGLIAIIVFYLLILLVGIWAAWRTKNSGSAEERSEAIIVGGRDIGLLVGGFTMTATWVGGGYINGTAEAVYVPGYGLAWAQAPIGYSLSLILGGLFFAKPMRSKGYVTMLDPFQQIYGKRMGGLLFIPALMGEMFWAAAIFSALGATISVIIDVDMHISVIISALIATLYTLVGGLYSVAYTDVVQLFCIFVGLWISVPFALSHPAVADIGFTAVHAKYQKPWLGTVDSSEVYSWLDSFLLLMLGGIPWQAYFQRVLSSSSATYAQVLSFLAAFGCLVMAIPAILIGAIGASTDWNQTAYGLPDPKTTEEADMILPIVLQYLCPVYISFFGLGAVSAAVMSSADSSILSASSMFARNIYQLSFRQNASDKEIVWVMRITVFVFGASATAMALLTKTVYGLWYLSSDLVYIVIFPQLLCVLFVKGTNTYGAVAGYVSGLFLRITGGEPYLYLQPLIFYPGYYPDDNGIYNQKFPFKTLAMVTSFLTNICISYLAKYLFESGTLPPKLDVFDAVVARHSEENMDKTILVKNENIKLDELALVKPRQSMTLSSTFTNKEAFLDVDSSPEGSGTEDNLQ

[4] = target: T3, High affinity choline transporter 1; assay: human choline transporter blockers, potency – cell-based, 10-point CRC, membrane potential dye, dose response (AID 588401); assay type: functional;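 also: membrane potential dye fluorescence of choline-evoked depolarization via CHT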
[5] = Vero cell viability loss – purified and synthesized compounds, set 6, cytotoxicity control for M. tuberculosis inhibitor project, dose response (AID 588445); assay type: functional; details: Mycobacterium tuberculosis
[6] = THP-1 cell cytotoxicity, cytotoxicity control, set 5 (AID 588443); assay type: functional
[7] = target: T1, Neuropeptides B/W receptor type 1; assay: human NPBW1 receptor blockade, IC50 – cell-based, fluorescence, dose response, set 5, late-stage follow-up (AID 588566); assay type: functional
[8] = target: T2, Melanin-concentrating hormone receptor 1; assay: Late-stage fluorescence-based counterscreen for antagonists of the G-protein coupled receptor 7 (GPR7): cell-based dose response assay to identify antagonists of the melanin-concentrating hormone receptor 1 (MCHR1) Set 5.; assay type: functional
[9] = cAMP pathway inhibition in counterscreen cell line – TR-FRET cAMP detection, counter-screen for MC4R biased antagonist project, dose response (AID 602305); assay type: functional, cell-based;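 also: U2OS cells stimulated with forskolin near its EC80 as the cAMP inducer; potency is for inhibition of forskolin-stimulated cAMP signaling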
[10] = target: T4, Neuropeptide Y receptor type 1 (Homo sapiens, UniProt P25929); assay: Fluorescence-based counterscreen for agonists of NPY-Y2: cell-based high-throughput dose response assay for agonists of NPY-Y1.; assay type: functional
T4 sequence (P25929 whole entry): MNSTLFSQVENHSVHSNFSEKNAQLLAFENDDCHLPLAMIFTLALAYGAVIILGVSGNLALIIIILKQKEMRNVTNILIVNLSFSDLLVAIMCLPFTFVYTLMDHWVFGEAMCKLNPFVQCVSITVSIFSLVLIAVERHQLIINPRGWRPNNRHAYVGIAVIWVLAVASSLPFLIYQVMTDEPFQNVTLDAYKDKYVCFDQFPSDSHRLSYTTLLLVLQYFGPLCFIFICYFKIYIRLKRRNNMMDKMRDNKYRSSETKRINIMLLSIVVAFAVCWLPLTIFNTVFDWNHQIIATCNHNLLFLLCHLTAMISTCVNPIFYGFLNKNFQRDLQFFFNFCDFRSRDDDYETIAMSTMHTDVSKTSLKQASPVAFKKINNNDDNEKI

[11] = target: T5, Neuropeptide Y receptor type 2 (Homo sapiens, UniProt P49146); assay: Fluorescence-based cell-based high-throughput dose response assay for agonists of NPY-Y2. [Related pubchem assays: 1703 (Screening assay (CNGC inhibitors).), 1359 (Screening assay (NPY-Y2 potentiators or agonists).), 1304 (Screening assay (NPY-Y1 potentiators or agonists).), 1710 (Screening assay (NPY-Y2 agonists).), 1791 (Summary AID.)]; assay type: functional
T5 sequence (P49146 whole entry): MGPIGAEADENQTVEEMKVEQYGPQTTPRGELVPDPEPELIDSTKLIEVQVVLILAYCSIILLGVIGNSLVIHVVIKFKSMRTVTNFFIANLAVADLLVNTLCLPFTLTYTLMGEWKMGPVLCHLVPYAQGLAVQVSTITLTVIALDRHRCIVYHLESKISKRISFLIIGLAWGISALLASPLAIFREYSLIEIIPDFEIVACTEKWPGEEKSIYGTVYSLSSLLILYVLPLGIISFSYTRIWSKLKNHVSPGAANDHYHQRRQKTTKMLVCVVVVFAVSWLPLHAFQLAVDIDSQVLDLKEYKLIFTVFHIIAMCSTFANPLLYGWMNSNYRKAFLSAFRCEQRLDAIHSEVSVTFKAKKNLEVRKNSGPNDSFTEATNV

HEK293 = assay: Fluorescence-based counterscreen for potentiators or agonists of NPY-Y2: cell-based high-throughput dose response assay to identify inhibitors of cyclic nucleotide gated ion channel (CNGC) activity. In this assay, the parental HEK293 cell line transfected with a cyclic-nucleotide gated ion channel (CNGC)-based cAMP sensor is used to measure inhibition of isoproterenol-induced CNGC activity by test compound.; assay type: functional; details: Homo sapiens;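 also: stimulus is 1 µM isoproterenol at EC100 plus PDE inhibitor Ro 20-1724 at 25 µM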
Melanocortin receptor 4 = Melanocortin receptor 4 (Homo sapiens, UniProt P32245); assay: inhibitors of MC4R cAMP signaling – cell-based, TR-FRET, biased antagonists, dose response (AID 602298); assay type: functional;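 also: antagonist potency against agonist-stimulated cAMP production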
Chain of Melanocortin receptor 4 (P32245 whole entry): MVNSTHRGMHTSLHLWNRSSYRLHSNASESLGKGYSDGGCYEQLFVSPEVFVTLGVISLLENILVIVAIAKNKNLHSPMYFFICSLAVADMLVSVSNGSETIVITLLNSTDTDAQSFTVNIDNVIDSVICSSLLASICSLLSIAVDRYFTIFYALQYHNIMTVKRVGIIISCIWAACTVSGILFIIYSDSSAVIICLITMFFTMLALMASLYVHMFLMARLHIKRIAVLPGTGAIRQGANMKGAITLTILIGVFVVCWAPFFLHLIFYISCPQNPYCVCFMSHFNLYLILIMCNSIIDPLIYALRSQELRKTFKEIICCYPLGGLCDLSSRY

T2 sequence (Q99705 whole entry): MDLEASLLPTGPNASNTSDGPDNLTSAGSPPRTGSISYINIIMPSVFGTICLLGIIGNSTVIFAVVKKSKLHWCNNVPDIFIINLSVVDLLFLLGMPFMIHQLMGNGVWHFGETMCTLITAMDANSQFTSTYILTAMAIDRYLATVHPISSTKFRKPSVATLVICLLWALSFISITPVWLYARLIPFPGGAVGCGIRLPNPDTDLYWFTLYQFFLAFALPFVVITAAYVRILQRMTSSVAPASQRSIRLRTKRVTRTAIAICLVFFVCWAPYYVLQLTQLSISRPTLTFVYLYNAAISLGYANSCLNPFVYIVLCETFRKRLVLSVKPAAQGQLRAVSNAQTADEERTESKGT

In the case of N#CC(c1ccc(F)cc1F)c1c(Cl)cnn(Cc2cccc3ccccc23)c1=O (stereo not drawn), the IC50 [1] is reported as 0.214 µM (active) and the IC50 [2] is reported as 0.214 µM (active).
For O=C(O)CC1=C(Nc2ccccc2)C(=O)N(c2ccccc2)C1c1ccc(F)cc1 (stereo not drawn), the IC50 [3] was 3.9 µM (active) and the IC50 [4] was 0.751 µM (active).
For O=C(c1ccc(CNc2c(N3CCCC3)c(=O)c2=O)cc1)N1CC=C(c2ccccc2)CC1, the CC50 [5] was > 100 µM (inconclusive) and the CC50 [6] was 75.8 µM (active).
In the case of COc1ccc(Oc2c(Cl)cnn(Cc3ccc(C(=O)c4ccccc4)cc3)c2=O)cc1, the IC50 [7] is reported as 5.25 µM (active) and the IC50 [8] is reported as 2.46 µM (active).
For O=C(Nc1ccccc1C(=O)N1CCCC1)c1ccc(Cl)c([N+](=O)[O-])c1, the IC50 [9] was > 64.6 µM (inactive), the EC50 [10] was 18.6 µM (not active) and the EC50 [11] was 27.9 µM (not active). The EC50 (HEK293) was 28 µM (not active) and the IC50 (Melanocortin receptor 4) was 20.6 µM (inactive).
